Laboratory results as given in PMC5512002 (Cellular signalling, 2017).
pIC50: −log10 of the molar value.

Target: T1, GPR55 (Rattus norvegicus, UniProt F1MAK4)
T1 sequence (F1MAK4 1-319): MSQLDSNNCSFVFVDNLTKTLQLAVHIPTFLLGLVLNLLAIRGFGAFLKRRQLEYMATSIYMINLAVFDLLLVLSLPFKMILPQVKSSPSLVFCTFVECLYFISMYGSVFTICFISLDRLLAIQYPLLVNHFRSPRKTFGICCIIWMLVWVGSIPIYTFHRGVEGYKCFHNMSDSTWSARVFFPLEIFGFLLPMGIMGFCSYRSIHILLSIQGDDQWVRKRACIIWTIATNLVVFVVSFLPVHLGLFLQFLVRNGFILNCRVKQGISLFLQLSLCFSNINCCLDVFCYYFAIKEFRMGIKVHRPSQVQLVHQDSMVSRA
Experiment: inhibition of uptake of fluorescent GPR55 ligand T1117 in live C6 cells
Assay type: cell-based

**Q.** `COc1ccc(C[C@@H](C)NC[C@H](O)c2cc(O)cc(O)c2)c2ccccc12` [(R,R′)-MNF] was tested. Which pIC50 did it give?
**A.** 6.49
